In US12122787B2, “Fused pyridone compound, and preparation method therefor and use thereof” (SHANGHAI JEMINCARE PHARMACEUTICALS CO., LTD, priority 2019, dated 2024):
Read-outs that look alike come from different tables or passages of the source.

Tested on: phosphorylated ERK (Thr202/Tyr204) in NCI-H358 cells expressing mutant RAS(G12C)
Assay: Inhibition of RAS-mediated signal transduction: phosphorylated ERK ELISA in NCI-H358 cells
Type: cell-based
Conditions: NCI-H358 cells, 2 hours of treatment, pERK normalized by Janus Green B, read-out: p-ERK IC50 (NCI H358)
Experimental: The cells were treated with or without the compound of the present disclosure (dimethyl sulfoxide, DMSO), and the final concentration of DMSO was guaranteed to be 0.5%. After 2 hours of treatment, the medium was removed and 4% paraformaldehyde (Beyotime catalog number E672002-0100) was added and left to stand for 20 minutes. Cells were washed with PBS after fixation and incubated with precooled methanol for 10 min to permeabilize the cell membrane.
The level of phosphorylated ERK was detected using an enzyme linked immunosorbent assay (ELISA) method. […] The plates were washed 5 times with PBS containing 0.05% Tween 20. […] The reaction was stopped by adding 1 mol/L H2SO4, and the OD value was read at 450 nm by EnVision (PerkinElmer).
The total number of cells per well was detected by Janus Green B staining method. After detecting the level of phosphorylated ERK, the 96-well plate was washed with PBS until colorless, and 0.1% Janus Green B (Abcam catalogue number ab111622) was added to incubate for 10 minutes. After the 96-well plate was washed with double distilled water, 0.1 mol/L HCl was added, then the mixture was shaked and incubated for 10 minutes. The OD value was read at 595 nm by EnVision (PerkinElmer).
The signal of pERK (Thr202/Tyr204) was normalized by the signal value of Janus Green B, and the inhibition percentage after drug treatment relative to DMSO reference was calculated. The percentage values were fitted by a four-parameter dose-response curve and generated IC50 values.

| SMILES | IC50 (Homo sapiens, NCI-H358, 2 h) [nM] | IC50 [nM] |
| --- | --- | --- |
| C=CC(=O)N1C[C@@H]2CN(CCCN(C)C)c3c(c4cc(F)c(-c5c(O)cccc5F)c(F)c4n(-c4c(C)ccnc4C(C)C)c3=O)N2C[C@H]1C [Compound 34A] | 503 |  |
| C=CC(=O)N1C[C@@H]2C(=O)N(C)c3c(c4cc(F)c(-c5c(O)cccc5F)c(F)c4n(-c4c(C)ccnc4C(C)C)c3=O)N2C[C@H]1C [Compound 21A] |  | 13 |
| C=CC(=O)N1C[C@@H]2C(=O)N(C)c3c(c4cc(F)c(-c5ccccc5O)c(F)c4n(-c4c(C)ccnc4C(C)C)c3=O)N2C[C@H]1C [Compound 46A] | 2050 |  |
| C=CC(=O)N1C[C@@H]2CN(C)c3c(c4cc(F)c(-c5c(O)cccc5F)c(F)c4n(-c4c(C)ccnc4C(C)C)c3=O)N2C[C@H]1C (single isomer, unassigned) [Compound 16B] |  | 1250 |
| C=CC(=O)N1C[C@@H]2CN(CC(=O)OC)c3c(c4cc(F)c(-c5c(O)cccc5F)c(F)c4n(-c4c(C)ccnc4C(C)C)c3=O)N2C[C@H]1C [Compound 38A-1] |  | 242 |
| C=CC(=O)N1C[C@@H]2C(=O)N(C)c3c(c4cc(F)c(-c5c(N)cccc5F)c(F)c4n(-c4c(C)ccnc4C(C)C)c3=O)N2C[C@H]1C [Compound 33A-1] | 717 |  |
| C=CC(=O)N1C[C@@H]2COc3c(c4cc(F)c(-c5c(O)cccc5F)c(F)c4n(-c4c(C)ccnc4C(C)C)c3=O)N2C[C@H]1C (atropisomer, axis not shown) [Compound 3A-1] |  | 3010 |
| C=CC(=O)N1C[C@@H]2C(=O)N(C)c3c(c4cc(F)c(-c5ccccc5F)c(F)c4n(-c4c(C)ccnc4C(C)C)c3=O)N2C[C@H]1C [Compound 31A] | 2160 |  |
| C=CC(=O)N1C[C@@H]2COc3c(c4cc(Cl)c(-c5c(O)cccc5F)nc4n(C)c3=O)N2C[C@H]1C [Compound 9] | 1960 |  |
| C=CC(=O)N1C[C@@H]2C(=O)N(CCN(C)C)c3c(c4cc(F)c(-c5c(F)cccc5OC)c(F)c4n(-c4c(C)ccnc4C(C)C)c3=O)N2C[C@H]1C [Compound 48A-1] | 294 |  |
| C=CC(=O)N1C[C@@H]2C(=O)N(CCN(C)C)c3c(c4cc(Cl)c(-c5c(O)cccc5F)c(F)c4n(-c4c(CC)ccnc4C(C)C)c3=O)N2C[C@H]1C [Compound 54A-1] |  | 641 |
| C=CC(=O)N1C[C@@H]2C(=O)Nc3c(c4cc(F)c(-c5c(O)cccc5F)c(F)c4n(-c4c(C)ccnc4C(C)C)c3=O)N2C[C@H]1C [Compound 22B-1] |  | 213 |
| C=CC(=O)N1C[C@@H]2C(=O)N(CCN(C)C)c3c(c4cc(F)c(-c5c(O)cccc5F)c(F)c4n(-c4c(C)ccnc4C(C)C)c3=O)N2C[C@H]1C [Compound 24A] | 3820 |  |
| C=CC(=O)N1CC2COc3c(c4cc(F)c(-c5c(O)cccc5F)c(F)c4n(-c4c(C(C)C)ncnc4C(C)C)c3=O)N2CC1C (single isomer, unassigned) [Compound 19B] |  | 936 |
| C=CC(=O)N1C[C@@H]2COc3c(c4cc(Cl)c(-c5c(O)cccc5F)c(F)c4n(C[C@@H]4CCCN4C)c3=O)N2C[C@H]1C [Compound 45A] | 1540 |  |
| C=CC(=O)N1C[C@@H]2COc3c(c4cc(F)c(-c5c(C)ccc6[nH]cnc56)nc4n(-c4ccccc4C(C)C)c3=O)N2C[C@H]1C [Compound 17] | 275 |  |
| C=CC(=O)N1C[C@@H]2COc3c(c4cc(F)c(-c5c(F)cccc5OC)nc4n(-c4ccccc4C(C)C)c3=O)N2C[C@H]1C [Compound 1A] | 173 |  |
| C=CC(=O)N1C[C@@H]2C(=O)Nc3c(c4cc(F)c(-c5c(O)cccc5F)c(F)c4n(-c4c(C)ccnc4C(C)C)c3=O)N2C[C@H]1C [Compound 22B] |  | 548 |
| C=CC(=O)N1C[C@]2(CO)C(=O)N(C)c3c(c4cc(F)c(-c5c(O)cccc5F)nc4n(-c4c(C)ccnc4C(C)C)c3=O)N2C[C@H]1C [Compound 51A] | 1280 |  |
| C=CC(=O)N1C[C@@H]2CNc3c(c4cc(F)c(-c5c(O)cccc5F)nc4n(-c4ccccc4C(C)C)c3=O)N2C[C@H]1C [Compound 11A] | 1120 |  |
| C=CC(=O)N1C[C@@H]2CN(CC(=O)OC)c3c(c4cc(F)c(-c5c(O)cccc5F)c(F)c4n(-c4c(C)ccnc4C(C)C)c3=O)N2C[C@H]1C [Compound 38B-1] |  | 1130 |
